According to patent US9102712B2, “Dendrimeric peptides, pharmaceutical compositions and methods of using the same” (New York University, priority 2010, dated 2015):
Values after ≈ are worked out from the molar mass of the structure shown. Square brackets hold non-standard residues; d marks the D form. Side chains are listed from the residue outwards. Peptide text beside a SMILES is read from it. * marks the point of attachment. ξ: configuration not given here. Lys(α,ε-(ArgTrp)2) = N=C(N)NCCC[C@H](N)C(=O)N[C@@H](Cc1c[nH]c2ccccc12)C(=O)NCCCC[C@H](NC(=O)[C@H](Cc1c[nH]c2ccccc12)NC(=O)[C@@H](N)CCCNC(=N)N)C(=O)*; X1 = CC(C)(C)c1cc(C(C)(C)C)c2[nH]c(C(C)(C)C)c(CC(NC(=O)[C@@H](N)CCCNC(=N)N)C(=O)*)c2c1; Trp(2,5,7-tBu3) = CC(C)(C)c1cc(C(C)(C)C)c2[nH]c(C(C)(C)C)c(C[C@H](N)C(=O)O)c2c1; ξTrp(2,5,7-tBu3) = CC(C)(C)c1cc(C(C)(C)C)c2[nH]c(C(C)(C)C)c(CC(N)C(=O)O)c2c1; βAla = NCCC(=O)O

Tests used:
MRSA = assay type: cell-based, Methicillin-resistant Staphylococcus aureus; conditions: 18 h
Method: (§1) The antibacterial activity of each dendrimer peptide was tested by following standard broth microdilution protocols recommended by the National Committee for Clinical Laboratory Standard (NCCLS 2004). Antibacterial testing was carried out on gram-negative bacteria E. coli (D31) and gram-positive bacteria S. aureus in liquid media Mueller Hinton (MH) Brooth according to literature procedures. Dendrimers were dissolved in PBS buffer (high salt, 150 mM NaCl; low salt, 75 mM NaCl), pH 7.4 to make series of stocks of 2-fold dilution. Cultures were grown overnight on Mueller Hinton (MH) agar plates, and 3 to 5 uniform colonies of each organism were transferred with an inoculating loop to test tubes containing MH broth, and incubated at 37° C. overnight, then diluted until the turbidity matched that of the 0.5 McFarland standard (approximately 1.5×10^8 cells/mL). The resulting solutions were further diluted to give approximately 2×10^4-2×10^5 CFU/mL. 100 μL of the bacterial inoculums were incubated in 96-well plates with varying volumes of stock solution and PBS buffer to bring the total volume to 200 μL. Solutions containing the same volumes of PBS buffer and MH Broth, with and without bacteria were used as controls. After these plates were incubated with shaking for 18 hrs at 37° C. to ensure the cultures had reached log phase growth, the absorbance readings were recorded at a wavelength of 600 nm using a Absorbance Microplate Reader BIO-TEK ELX800. The 18-hour absorbance data were used to calculate the percent inhibition for each test condition. All assays were carried out in triplicate. The experimental data were fitted to sigmoidal dose-response curves using GraphPad Prism (GraphPad Software Inc., San Diego, Calif., USA).

B. Subtilis = assay type: cell-based; conditions: 18 h
E. coli (D31) = test: Antibacterial broth microdilution, E. coli; assay type: cell-based; conditions: for IC50 E. Coli D31 / E. Coli IC50: 50% inhibition of growth, MH broth, 18 hrs at 37° C.; for IC50 E. Coli D31: Table 3; for E. Coli IC50: Table 1; for E. Coli HI (hemolytic index): HI=HD50/IC50, E. coli
Method: as §1

fresh sheep RBC = assay type: cell-based; conditions: red cells of sheep, 1 h
Method: Hemolytic activity of dendrimeric compounds were assessed on fresh sheep RBC (Fitzgerald, Inc., MA). Dendrimer concentrations corresponding to 50% hemolysis were used as hemolytic dose (HD50) determined from dose-response curve. The fresh sheep RBC was washed with PBS buffer (thrice) and aliquots of cell suspension were mixed in eppendorf tubes with varying volumes of stocks and buffer for a total volume of 400 μL. These tubes were incubated at 37° C. for 1 hr, and then spun down at 3,000 rpm for 5 mins. The resulting supernatant was trasferred to a 96-well plate and the absorbances at 540 nm were measured in an Absorbance Microplate Reader BIO-TEK ELX800. Zero hemolysis and 100% hemolysis controls were obtained by incubating the cells with buffer and 1% Triton X-100, respectively. Hemolytic index (HI) was defined as HI=HD50/IC50 (Table 1 and 3).

S. aureus = assay type: cell-based; conditions: for S. Aureus IC50: 18 h; for S. Aureus HI (hemolytic index): HI=HD50/IC50, S. aureus
Method: as §1

Row | SMILES | IC50 MRSA (MRSA) | IC50 B. Subtilis (B. Subtilis) | IC50 E. Coli D31 (E. coli (D31)) | HD50 Hemolysis (fresh sheep RBC) | S. Aureus IC50 (S. aureus) | E. Coli IC50 (E. coli (D31)) | Hemolysis HD50 (fresh sheep RBC) | S. Aureus HI (hemolytic index) (S. aureus) | E. Coli HI (hemolytic index) (E. coli (D31))
1 | CC(C)(C)c1cc(C(C)(C)C)c2[nH]c(C(C)(C)C)c(CC(NC(=O)[C@@H](N)CCCNC(=N)N)C(=O)N[C@@H](CCCNC(=N)N)C(=O)NCCCC[C@H](NC(=O)[C@H](CCCNC(=N)N)NC(=O)C(Cc3c(C(C)(C)C)[nH]c4c(C(C)(C)C)cc(C(C)(C)C)cc34)NC(=O)[C@@H](N)CCCNC(=N)N)C(=O)N[C@@H](CCCCNC(=O)[C@H](CCCNC(=N)N)NC(=O)[C@H](Cc3c[nH]c4ccccc34)NC(=O)[C@@H](N)CCCNC(=N)N)C(=O)NCCC(N)=O)c2c1 (stereo partly drawn) [Dendrimer 3D-26] (H-R[ξTrp(2,5,7-tBu3)]RK([Arg-X1])K([Arg-Trp-Arg])[βAla]-NH2) | 0.5 µg/mL (≈ 0.23 µM) | 1.4 µg/mL (≈ 0.643 µM) | 1.4 µg/mL (≈ 0.643 µM) | 33 µg/mL |  |  |  |  | 
2 | N=C(N)NCCC[C@H](NC(=O)[C@H](Cc1c[nH]c2ccccc12)NC(=O)[C@@H](N)CCCNC(=N)N)C(=O)NCCCC[C@H](NC(=O)[C@H](CCCCNC(=O)[C@H](CCCNC(=N)N)NC(=O)[C@H](Cc1c[nH]c2ccccc12)NC(=O)[C@@H](N)CCCNC(=N)N)NC(=O)[C@H](CCCNC(=N)N)NC(=O)[C@H](Cc1c[nH]c2ccccc12)NC(=O)[C@@H](N)CCCNC(=N)N)C(=O)NCCC(N)=O [Dendrimer 3D-06, reference compound] (H-RWRK([Arg-Trp-Arg])K([Arg-Trp-Arg])[βAla]-NH2) | 17.3 µg/mL (≈ 9.4 µM) | 1.9 µg/mL (≈ 1.03 µM) | 1.8 µg/mL (≈ 0.978 µM) | 2336 µg/mL |  |  |  |  | 
3 | N=C(N)NCCC[C@H](NC(=O)[C@@H](N)Cc1c[nH]c2ccccc12)C(=O)NCCCC[C@H](NC(=O)[C@H](CCCCNC(=O)[C@H](CCCNC(=N)N)NC(=O)[C@@H](N)Cc1c[nH]c2ccccc12)NC(=O)[C@H](CCCNC(=N)N)NC(=O)[C@@H](N)Cc1c[nH]c2ccccc12)C(=O)NCCC(N)=O [Dendrimer 3D-03, reference compound] (H-WRK([Arg-Trp])K([Arg-Trp])[βAla]-NH2) | >100 µg/mL | 14.3 µg/mL (≈ 10.4 µM) | 12.1 µg/mL (≈ 8.82 µM) | 3197 µg/mL |  |  |  |  | 
4 | CC(C)(C)c1cc(C(C)(C)C)c2[nH]c(C(C)(C)C)c(C[C@H](N)C(=O)N[C@@H](CCCNC(=N)N)C(=O)NCCCC[C@H](NC(=O)[C@H](CCCCNC(=O)[C@H](CCCNC(=N)N)NC(=O)[C@@H](N)Cc3c[nH]c4ccccc34)NC(=O)[C@H](CCCNC(=N)N)NC(=O)[C@@H](N)Cc3c[nH]c4ccccc34)C(=O)NCCC(N)=O)c2c1 [Dendrimer 3D-13] (H-WRK([Arg-Trp])K([Arg-Trp(2,5,7-tBu3)])[βAla]-NH2) | 1.7 µg/mL (≈ 1.1 µM) | 1.9 µg/mL (≈ 1.23 µM) | 1.0 µg/mL (≈ 0.649 µM) | 270 µg/mL |  |  |  |  | 
5 | CC(C)(C)c1cc(C(C)(C)C)c2[nH]c(C(C)(C)C)c(C[C@H](N)C(=O)N[C@@H](CCCNC(=N)N)C(=O)NCCCC[C@H](NC(=O)[C@H](CCCNC(=N)N)NC(=O)[C@@H](N)Cc3c(C(C)(C)C)[nH]c4c(C(C)(C)C)cc(C(C)(C)C)cc34)C(=O)N[C@@H](CCCCNC(=O)[C@H](CCCNC(=N)N)NC(=O)[C@@H](N)Cc3c[nH]c4ccccc34)C(=O)NCCC(N)=O)c2c1 [Dendrimer 3D-23] (H-[Trp(2,5,7-tBu3)]RK([Arg-Trp(2,5,7-tBu3)])K([Arg-Trp])[βAla]-NH2) | 0.7 µg/mL (≈ 0.41 µM) | 2.1 µg/mL (≈ 1.23 µM) | 2.4 µg/mL (≈ 1.4 µM) | 99 µg/mL |  |  |  |  | 
6 | N=C(N)NCCC[C@H](N)C(=O)N[C@@H](Cc1c[nH]c2ccccc12)C(=O)NCCN(CCNC(=O)[C@H](Cc1c[nH]c2ccccc12)NC(=O)[C@@H](N)CCCNC(=N)N)CCNC(=O)[C@H](Cc1c[nH]c2ccccc12)NC(=O)[C@@H](N)CCCNC(=N)N [TAEA-(WR)3, TAEA-(WR—NH2)3] |  |  |  |  | 0.97 ± 0.02 µg/mL | 2.07 ± 0.22 µg/mL | 3073 µg/mL |  | 
7 | CC(C)(C)c1cc(C(C)(C)C)c2[nH]c(C(C)(C)C)c(CC(NC(=O)[C@@H](N)CCCNC(=N)N)C(=O)N[C@@H](CCCNC(=N)N)C(=O)NCCCC[C@H](NC(=O)[C@H](CCCCNC(=O)[C@H](CCCNC(=N)N)NC(=O)[C@H](Cc3c[nH]c4ccccc34)NC(=O)[C@@H](N)CCCNC(=N)N)NC(=O)[C@H](CCCNC(=N)N)NC(=O)[C@H](Cc3c[nH]c4ccccc34)NC(=O)[C@@H](N)CCCNC(=N)N)C(=O)NCCC(N)=O)c2c1 (stereo partly drawn) [Dendrimer 3D-16] (H-RWRK([Arg-Trp-Arg])K([Arg-X1])[βAla]-NH2) | 5.2 µg/mL (≈ 2.59 µM) | 0.9 µg/mL (≈ 0.448 µM) | 0.4 µg/mL (≈ 0.199 µM) | 201 µg/mL |  |  |  |  | 
8 | N=C(N)NCCC[C@H](N)C(=O)N[C@@H](Cc1c[nH]c2ccccc12)C(=O)NCCCN(CCCCN(CCCNC(=O)[C@H](Cc1c[nH]c2ccccc12)NC(=O)[C@@H](N)CCCNC(=N)N)CCCNC(=O)[C@H](Cc1c[nH]c2ccccc12)NC(=O)[C@@H](N)CCCNC(=N)N)CCCNC(=O)[C@H](Cc1c[nH]c2ccccc12)NC(=O)[C@@H](N)CCCNC(=N)N [POPAM-(WR)4, POPAM-(WR—NH2)3] |  |  |  |  | 0.37 ± 0.13 µg/mL | 0.57 ± 0.12 µg/mL | 291 µg/mL |  | 
9 | CC(C)(C)c1cc(C(C)(C)C)c2[nH]c(C(C)(C)C)c(CC(NC(=O)[C@@H](N)CCCNC(=N)N)C(=O)N[C@@H](CCCNC(=N)N)C(=O)NCCCC[C@H](NC(=O)[C@H](CCCNC(=N)N)NC(=O)C(Cc3c(C(C)(C)C)[nH]c4c(C(C)(C)C)cc(C(C)(C)C)cc34)NC(=O)[C@@H](N)CCCNC(=N)N)C(=O)NCCC(N)=O)c2c1 (stereo partly drawn) [Dendrimer 2D-24] | 0.2 µg/mL (≈ 0.129 µM) | 0.8 µg/mL (≈ 0.516 µM) | 0.5 µg/mL (≈ 0.323 µM) | 48 µg/mL |  |  |  |  | 
10 | NCCCC[C@H](N)C(=O)N[C@@H](Cc1c[nH]c2ccccc12)C(=O)NCCN(CCNC(=O)[C@H](Cc1c[nH]c2ccccc12)NC(=O)[C@@H](N)CCCCN)CCNC(=O)[C@H](Cc1c[nH]c2ccccc12)NC(=O)[C@@H](N)CCCCN [TAEA-(WK)3, TAEA-(WK—NH2)3] |  |  |  |  | 4.12 ± 0.58 µg/mL | 6.87 ± 0.01 µg/mL | 5423 µg/mL | 1316 | 789
11 | N=C(N)NCCC[C@H](N)C(=O)N[C@@H](Cc1c[nH]c2ccccc12)C(=O)NCCCC[C@H](NC(=O)[C@H](Cc1c[nH]c2ccccc12)NC(=O)[C@@H](N)CCCNC(=N)N)C(=O)NCCCC[C@H](NC(=O)[C@H](CCCCNC(=O)[C@H](Cc1c[nH]c2ccccc12)NC(=O)[C@@H](N)CCCNC(=N)N)NC(=O)[C@H](Cc1c[nH]c2ccccc12)NC(=O)[C@@H](N)CCCNC(=N)N)C(=O)NCCC(N)=O [(RW)4D, reference compound] (H-RWK([Trp-Arg])K(Lys(α,ε-(ArgTrp)2))[βAla]-NH2; N-terminus and C-terminus assumed) |  |  |  |  | 16 µg/mL |  | 1400 µg/mL | 88 | 310
12 | N=C(N)NCCC[C@H](NC(=O)[C@H](Cc1c[nH]c2ccccc12)NC(=O)[C@@H](N)CCCNC(=N)N)C(=O)NCCCC[C@H](NC(=O)[C@H](CCCNC(=N)N)NC(=O)[C@H](Cc1c[nH]c2ccccc12)NC(=O)[C@@H](N)CCCNC(=N)N)C(=O)NCCC(N)=O [Dendrimer 2D-04, reference compound] (H-RWRK([Arg-Trp-Arg])[βAla]-NH2) | 56.6 µg/mL (≈ 46.6 µM) | 6.1 µg/mL (≈ 5.03 µM) | 6.8 µg/mL (≈ 5.6 µM) | 3428 µg/mL |  |  |  |  | 
13 | N=C(N)NCCC[C@H](NC(=O)[C@@H](N)Cc1c[nH]c2ccccc12)C(=O)NCCCC[C@H](NC(=O)[C@H](CCCNC(=N)N)NC(=O)[C@@H](N)Cc1c[nH]c2ccccc12)C(=O)NCCCC[C@H](NC(=O)[C@H](CCCCNC(=O)[C@H](CCCNC(=N)N)NC(=O)[C@@H](N)Cc1c[nH]c2ccccc12)NC(=O)[C@H](CCCNC(=N)N)NC(=O)[C@@H](N)Cc1c[nH]c2ccccc12)C(=O)NCCC(N)=O [Dendrimer 4D-04, reference compound] | 14.6 µg/mL (≈ 7.93 µM) | 4.2 µg/mL (≈ 2.28 µM) | 4.5 µg/mL (≈ 2.44 µM) | 1563 µg/mL |  |  |  |  | 
